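Values below derive from 48-hour exposures of cells grown in 96-well plates, with endpoints linearly interpolated between the two concentrations bracketing the appropriate inhibition level. The concentration for 50% growth inhibition is given as GI50.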 Active and inactive are the calls of the source. Rule as the data show it: active = GI50 up to about 1.1 µM and inactive = higher.
Columns and labels:
Experiment in all cases: DTP human tumour cell line panel, 48 h
[1] = tested on: MDA-MB-231
[2] = tested on: DU-145
[3] = tested on: SW-620
[4] = tested on: SNB-19
[5] = tested on: TK-10
[6] = tested on: SNB-75
[7] = tested on: SF-295
[8] = tested on: OVCAR-5
[9] = tested on: ACHN
[10] = tested on: MCF7
[11] = tested on: SR
[12] = tested on: 786-0
[13] = tested on: HCT-116
[14] = tested on: KM12
[15] = tested on: U-251
[16] = tested on: OVCAR-4
[17] = tested on: CCRF-CEM
[18] = tested on: HT-29
[19] = tested on: A549
[20] = tested on: SN12C
[21] = tested on: COLO 205
[22] = tested on: HCC 2998
[23] = tested on: SF-539
[24] = tested on: HCT-15
[25] = tested on: NCI-H226
[26] = tested on: A498
[27] = tested on: CAKI-1
[28] = tested on: HOP-62
[29] = tested on: M14
[30] = tested on: BT-549
[31] = tested on: Malme-3M
[32] = tested on: SF-268
[33] = tested on: OVCAR-8
[34] = tested on: SK-OV-3
[35] = tested on: UO-31
[36] = tested on: NCI-H522
[37] = tested on: IGROV-1
[38] = tested on: HOP-92
[39] = tested on: MOLT-4
[40] = tested on: HL-60
[41] = tested on: T47D
[42] = tested on: MDA-MB-435
[43] = tested on: OVCAR-3
[44] = tested on: NCI-H23
[45] = tested on: UACC-257
[46] = tested on: PC-3
[47] = tested on: NCI/ADR-RES
[48] = tested on: MDA-N
[49] = tested on: NCI-H460
[50] = tested on: RXF 393
[51] = tested on: K562
[52] = tested on: SK-MEL-28
[53] = tested on: UACC-62
[54] = tested on: LOX IMVI
[55] = tested on: EKVX
[56] = tested on: RPMI-8226
[57] = tested on: SK-MEL-5
[58] = tested on: Hs-578T
[59] = tested on: SK-MEL-2

COC(=O)/C=C/CCC#Cc1ccccc1C#CCC/C=C/C(=O)OC
GI50 [1]: 20.1 µM (inactive) | GI50 [2]: 32 µM (inactive) | GI50 [3]: 4.89 µM (inactive) | GI50 [4]: 4.97 µM (inactive) | GI50 [5]: 30.7 µM (inactive) | GI50 [6]: 2.89 µM (inactive) | GI50 [7]: 13.2 µM (inactive) | GI50 [8]: 23.5 µM (inactive) | GI50 [9]: 23.7 µM (inactive) | GI50 [10]: 6.41 µM (inactive) | GI50 [11]: 3.43 µM (inactive) | GI50 [12]: 4.98 µM (inactive) | GI50 [13]: 3.48 µM (inactive) | GI50 [14]: 4.98 µM (inactive) | GI50 [15]: 4.32 µM (inactive) | GI50 [16]: 16.9 µM (inactive) | GI50 [17]: 4.48 µM (inactive) | GI50 [18]: 3.49 µM (inactive) | GI50 [19]: 15.3 µM (inactive) | GI50 [20]: 7.38 µM (inactive) | GI50 [21]: 5.48 µM (inactive) | GI50 [22]: 50.1 µM (inactive) | GI50 [23]: 10.5 µM (inactive) | GI50 [24]: 3.98 µM | GI50 [25]: 13.1 µM (inactive) | GI50 [26]: 38.5 µM (inactive) | GI50 [27]: 2.88 µM (inactive) | GI50 [28]: 24.2 µM (inactive) | GI50 [29]: 8.97 µM (inactive) | GI50 [30]: 7.55 µM (inactive) | GI50 [31]: 3.9 µM (inactive) | GI50 [32]: 9.82 µM (inactive) | GI50 [33]: 6.46 µM (inactive) | GI50 [34]: 21.7 µM (inactive) | GI50 [35]: 19.5 µM (inactive) | GI50 [36]: 3.57 µM (inactive) | GI50 [37]: 4.88 µM (inactive) | GI50 [38]: 15.7 µM (inactive) | GI50 [39]: 3.01 µM (inactive) | GI50 [40]: 2.7 µM (inactive) | GI50 [41]: 4.07 µM (inactive) | GI50 [42]: 6 µM (inactive) | GI50 [43]: 3.58 µM (inactive) | GI50 [44]: 4.78 µM (inactive) | GI50 [45]: 23.7 µM (inactive) | GI50 [46]: 14.3 µM (inactive) | GI50 [47]: 8.28 µM (inactive) | GI50 [48]: 4.47 µM (inactive) | GI50 [49]: 12.4 µM (inactive) | GI50 [50]: 4.49 µM (inactive) | GI50 [51]: 1.76 µM (inactive) | GI50 [52]: 47.5 µM (inactive) | GI50 [53]: 12.6 µM (inactive) | GI50 [54]: 4.99 µM (inactive) | GI50 [55]: 36.1 µM (inactive)

Cc1cc(C)c2c(c1)CC1(Cc3cc(C)c(C)cc3C1=O)C2=O (stereo not drawn)
GI50 [1]: > 100 µM (inactive) | GI50 [2]: > 100 µM (inactive) | GI50 [3]: 95.7 µM (inactive) | GI50 [4]: > 100 µM (inactive) | GI50 [5]: > 100 µM (inactive) | GI50 [6]: > 100 µM (inactive) | GI50 [7]: > 100 µM (inactive) | GI50 [8]: 48.1 µM (inactive) | GI50 [9]: > 100 µM (inactive) | GI50 [10]: > 100 µM (inactive) | GI50 [11]: 14.7 µM (inactive) | GI50 [12]: 71.9 µM (inactive) | GI50 [14]: > 100 µM (inactive) | GI50 [15]: > 100 µM (inactive) | GI50 [16]: 77.8 µM (inactive) | GI50 [17]: > 100 µM (inactive) | GI50 [19]: 59.4 µM (inactive) | GI50 [20]: > 100 µM (inactive) | GI50 [21]: > 100 µM (inactive) | GI50 [56]: > 100 µM (inactive) | GI50 [22]: > 100 µM (inactive) | GI50 [23]: 46.2 µM (inactive) | GI50 [24]: > 100 µM | GI50 [57]: > 100 µM (inactive) | GI50 [25]: > 100 µM (inactive) | GI50 [58]: 56.6 µM (inactive) | GI50 [26]: > 100 µM (inactive) | GI50 [27]: > 100 µM (inactive) | GI50 [29]: 27.7 µM (inactive) | GI50 [30]: > 100 µM (inactive) | GI50 [31]: 4.75 µM (inactive) | GI50 [32]: > 100 µM (inactive) | GI50 [33]: > 100 µM (inactive) | GI50 [35]: > 100 µM (inactive) | GI50 [36]: > 100 µM (inactive) | GI50 [37]: 90.4 µM (inactive) | GI50 [38]: 60.5 µM (inactive) | GI50 [39]: > 100 µM (inactive) | GI50 [40]: 7.1 µM (inactive) | GI50 [41]: > 100 µM (inactive) | GI50 [42]: 3.82 µM (inactive) | GI50 [43]: > 100 µM (inactive) | GI50 [45]: > 100 µM (inactive) | GI50 [46]: > 100 µM (inactive) | GI50 [59]: > 100 µM (inactive) | GI50 [47]: > 100 µM (inactive) | GI50 [49]: > 100 µM (inactive) | GI50 [50]: 44.9 µM (inactive) | GI50 [51]: > 100 µM (inactive) | GI50 [52]: > 100 µM (inactive) | GI50 [53]: > 100 µM (inactive) | GI50 [54]: > 100 µM (inactive) | GI50 [55]: > 100 µM (inactive)
